Measurements from patent publication US5955440A, “Macrolide LHRH antagonists” (Abbott Laboratories, priority 1998, dated 1999).
Structures can show the parent of a compound that is named as a salt.

Molecular target: T1, LHRH rat pituitary receptor (Rattus norvegicus, UniProt P30969)
T1 construct: from tissue; host or cells: rat pituitary
T1 sequence (P30969 1-327): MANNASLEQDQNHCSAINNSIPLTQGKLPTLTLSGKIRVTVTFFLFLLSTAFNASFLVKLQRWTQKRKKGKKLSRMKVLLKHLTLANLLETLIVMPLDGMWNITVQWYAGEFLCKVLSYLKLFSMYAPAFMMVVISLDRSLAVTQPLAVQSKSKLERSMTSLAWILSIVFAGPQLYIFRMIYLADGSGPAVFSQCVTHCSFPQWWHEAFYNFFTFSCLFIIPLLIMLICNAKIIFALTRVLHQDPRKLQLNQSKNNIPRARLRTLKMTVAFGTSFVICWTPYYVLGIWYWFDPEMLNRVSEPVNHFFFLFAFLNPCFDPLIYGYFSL
Test: LHRH rat pituitary receptor binding (pKI)
Details: negative logarithm of the equilibrium dissociation constants; for receptor binding affinity (pKI): Table 1; for Ki: Table 1, read-out: receptor binding affinity (pKI) (converted)
Experimental: Representative compounds of the present invention were evaluated in in vitro tests for LHRH rat pituitary receptor binding (pKI) and for LH inhibition from rat pituitary cells for antagonist potency (pA2). The tests employed the methods detailed in F. Haviv, et al. J. Med. Chem., 32: 2340-2344 (1989). The receptor binding affinity (pKI) is the negative logarithm of the equilibrium dissociation constants.

## 3'-N-Desmethyl-3'-N-[3-(3-pyridyl)propyl]-11-deoxy-11-[carboxy-(3,4-dichlorophenethylamino)]-6-O-methyl-erythromycin A 11,12-(cyclic carbamate) [Example 79]
  receptor binding affinity (pKI): 8.11

## CC[C@H]1OC(=O)[C@H](C)[C@@H](O[C@H]2C[C@@](C)(OC)[C@@H](O)[C@H](C)O2)[C@H](C)[C@@H](O[C@@H]2O[C@H](C)C[C@H](N(C)C3CC3)[C@H]2O)[C@](C)(OC)C[C@@H](C)C(=O)[C@H](C)[C@H]2N(CCc3ccc(Cl)c(Cl)c3)C(=O)O[C@]12C [Example 2, 3'-N-Desmethyl-3'-N-cyclopropyl-11-deoxy-11-[carboxy-(3,4-dichlorophenethylamino)]-6-O-methyl-erythromycin A 11,12-(cyclic carbamate)]
  Ki: 0.575 nM

## CC[C@H]1OC(=O)[C@H](C)[C@@H](O[C@H]2C[C@@](C)(OC)[C@@H](O)[C@H](C)O2)[C@H](C)[C@@H](O[C@@H]2O[C@H](C)C[C@H](N(C)C3CCC3)[C@H]2O)[C@](C)(OC)C[C@@H](C)C(=O)[C@H](C)[C@H]2N(CCc3ccc(Cl)c(Cl)c3)C(=O)O[C@]12C [Example 4, 3'-N-Desmethyl-3'-N-cyclobutyl-11-deoxy-11-[carboxy-(3,4-dichlorophenethylamino)]-6-O-methyl-erythromycin A 11,12-(cyclic carbamate) hydrochloride]
  Ki: 3.24 nM

## CC[C@H]1OC(=O)[C@H](C)[C@@H](O[C@H]2C[C@@](C)(OC)[C@@H](O)[C@H](C)O2)[C@H](C)[C@@H](O[C@@H]2O[C@H](C)C[C@H](N(C)C3CCCCC3)[C@H]2O)[C@](C)(OC)C[C@@H](C)C(=O)[C@H](C)[C@H]2N(CCc3ccc(Cl)c(Cl)c3)C(=O)O[C@]12C [Example 5, 3'-N-Desmethyl-3'-N-cyclohexyl-11-deoxy-11-[carboxy-(3,4-dichlorophenethylamino)]-6-O-methyl-erythromycin A 11,12-(cyclic carbamate)]
  Ki: 3.63 nM

## CC[C@H]1OC(=O)[C@H](C)[C@@H](O[C@H]2C[C@@](C)(OC)[C@@H](O)[C@H](C)O2)[C@H](C)[C@@H](O[C@@H]2O[C@H](C)C[C@H](N(C)CCC(C)C)[C@H]2O)[C@](C)(OC)C[C@@H](C)C(=O)[C@H](C)[C@H]2N(CCc3ccc(Cl)c(Cl)c3)C(=O)O[C@]12C [Example 6]
  Ki: 8.13 nM

## CC[C@H]1OC(=O)[C@H](C)[C@@H](O[C@H]2C[C@@](C)(OC)[C@@H](O)[C@H](C)O2)[C@H](C)[C@@H](O[C@@H]2O[C@H](C)C[C@H](N(C)CCCSC)[C@H]2O)[C@](C)(OC)C[C@@H](C)C(=O)[C@H](C)[C@H]2N(CCc3ccc(Cl)c(Cl)c3)C(=O)O[C@]12C [Example 7, 3'-N-Desmethyl-3'-N-(3-methylthiopropyl)-11-deoxy-11-[carboxy-(3,4-dichlorophenethylamino)]-6-O-methyl-erythromycin A 11,12-(cyclic carbamate)]
  Ki: 4.68 nM

## CC[C@H]1OC(=O)[C@H](C)[C@@H](O[C@H]2C[C@@](C)(OC)[C@@H](O)[C@H](C)O2)[C@H](C)[C@@H](O[C@@H]2O[C@H](C)C[C@H](N(C)C3CCSC3)[C@H]2O)[C@](C)(OC)C[C@@H](C)C(=O)[C@H](C)[C@H]2N(CCc3ccc(Cl)c(Cl)c3)C(=O)O[C@]12C (some centres unmarked) [Example 8, 3'-N-Desmethyl-3'-N-(3-tetrahydrothienyl)-11-deoxy-11-[carboxy-(3,4-dichlorophenethylamino)]-6-O-methyl-erythromycin A 11,12-(cyclic carbamate)]
  Ki: 7.41 nM

## CC[C@H]1OC(=O)[C@H](C)[C@@H](O[C@H]2C[C@@](C)(OC)[C@@H](O)[C@H](C)O2)[C@H](C)[C@@H](O[C@@H]2O[C@H](C)C[C@H](N(C)C3CC(C)C(C)C3)[C@H]2O)[C@](C)(OC)C[C@@H](C)C(=O)[C@H](C)[C@H]2N(CCc3ccc(Cl)c(Cl)c3)C(=O)O[C@]12C (some centres unmarked) [Example 9, 3'-N-Desmethyl-3'-N-(3,4-dimethylcyclopentyl)-11-deoxy-11-[carboxy-(3,4-dichlorophenethylamino)]-6-O-methyl-erythromycin A 11,12-(cyclic carbamate)]
  receptor binding affinity (pKI): 8.36

## CC[C@H]1OC(=O)[C@H](C)[C@@H](O[C@H]2C[C@@](C)(OC)[C@@H](O)[C@H](C)O2)[C@H](C)[C@@H](O[C@@H]2O[C@H](C)C[C@H](N(C)C(C)C)[C@H]2O)[C@](C)(OC)C[C@@H](C)C(=O)[C@H](C)[C@H]2N(CC3(c4ccc(Cl)c(Cl)c4)CC3)C(=O)O[C@]12C [Example 10, 3'-N-Desmethyl-3'-N-isopropyl-11-deoxy-11-[carboxy-(α,α-cyclopropyl-3,4-dichlorophenethylamino)]-6-O-methyl-erythromycin A 11,12-(cyclic carbamate)]
  Ki: 1.74 nM

## CC[C@H]1OC(=O)[C@H](C)[C@@H](O[C@H]2C[C@@](C)(OC)[C@@H](O)[C@H](C)O2)[C@H](C)[C@@H](O[C@@H]2O[C@H](C)C[C@H](N(C)C3CCC3)[C@H]2O)[C@](C)(OC)C[C@@H](C)C(=O)[C@H](C)[C@H]2N(CC3(c4ccc(Cl)c(Cl)c4)CC3)C(=O)O[C@]12C [Example 11, 3'-N-Desmethyl-3'-N-cyclobutyl-11-deoxy-11-[carboxy-(α,α-cyclopropyl-3,4-dichlorophenethylamino)]-6-O-methyl-erythromycin A 11,12-(cyclic carbamate)]
  Ki: 3.09 nM

## CC[C@H]1OC(=O)[C@H](C)[C@@H](O[C@H]2C[C@@](C)(OC)[C@@H](O)[C@H](C)O2)[C@H](C)[C@@H](O[C@@H]2O[C@H](C)C[C@H](N(C)C3CCCC3)[C@H]2O)[C@](C)(OC)C[C@@H](C)C(=O)[C@H](C)[C@H]2N(CC3(c4ccc(Cl)c(Cl)c4)CC3)C(=O)O[C@]12C [Example 12, 3'-N-Desmethyl-3'-N-cyclopentyl-11-deoxy-11-[carboxy-(α,α-cyclopropyl-3,4-dichlorophenethylamino)]-6-O-methyl-erythromycin A 11,12-(cycliccarbamate)]
  Ki: 2.09 nM

## CC[C@H]1OC(=O)[C@H](C)[C@@H](O[C@H]2C[C@@](C)(OC)[C@@H](O)[C@H](C)O2)[C@H](C)[C@@H](O[C@@H]2O[C@H](C)C[C@H](N(C)C3CCCCC3)[C@H]2O)[C@](C)(OC)C[C@@H](C)C(=O)[C@H](C)[C@H]2N(CC3(c4ccc(Cl)c(Cl)c4)CC3)C(=O)O[C@]12C [Example 13, 3'-N-Desmethyl-3'-N-cyclohexyl-11-deoxy-11-[carboxy-(α,α-cyclopropyl-3,4-dichlorophenethylamino)]-6-O-methyl-erythromycin A 11,12-(cyclic carbamate)]
  Ki: 7.94 nM

## CCCN(C)[C@H]1C[C@@H](C)O[C@@H](O[C@@H]2[C@@H](C)[C@H](O[C@H]3C[C@@](C)(OC)[C@@H](O)[C@H](C)O3)[C@@H](C)C(=O)O[C@H](CC)[C@@]3(C)OC(=O)N(CCc4ccc5c(c4)OCO5)[C@@H]3[C@@H](C)C(=O)[C@H](C)C[C@@]2(C)OC)[C@@H]1O [Example 14, 3'-N-Desmethyl-3'-N-n-propyl-11-deoxy-11-[carboxy-(3,4-dioxolanophenethylamino)]-6-O-methyl-erythromycin A 11,12-(cyclic carbamate)]
  Ki: 1.78 nM

## CC[C@H]1OC(=O)[C@H](C)[C@@H](O[C@H]2C[C@@](C)(OC)[C@@H](O)[C@H](C)O2)[C@H](C)[C@@H](O[C@@H]2O[C@H](C)C[C@H](N(C)C3CCCC3)[C@H]2O)[C@](C)(OC)C[C@@H](C)C(=O)[C@H](C)[C@H]2N(CCc3ccc4c(c3)OCO4)C(=O)O[C@]12C [Example 15, 3'-N-Desmethyl-3'-N-cyclopentyl-11-deoxy-11[carboxy-(3,4-dioxolanophenethylamino)]-6-O-methyl-erythromycin A 11,12-(cyclic carbamate)]
  Ki: 6.31 nM

## CC[C@H]1OC(=O)[C@H](C)[C@@H](O[C@H]2C[C@@](C)(OC)[C@@H](O)[C@H](C)O2)[C@H](C)[C@@H](O[C@@H]2O[C@H](C)C[C@H](N(C)C(C)C)[C@H]2O)[C@](C)(OC)C[C@@H](C)C(=O)[C@H](C)[C@H]2N(CCc3ccc(Cl)c(F)c3)C(=O)O[C@]12C [Example 17, 3'-N-Desmethyl-3'-N-isopropyl-11-deoxy-11-[carboxy-(4-chloro-3-fluorophenethylamino)]-6-O-methyl-erythromycin A 11,12-(cyclic carbamate)]
  Ki: 4.27 nM

## CC[C@H]1OC(=O)[C@H](C)[C@@H](O[C@H]2C[C@@](C)(OC)[C@@H](O)[C@H](C)O2)[C@H](C)[C@@H](O[C@@H]2O[C@H](C)C[C@H](N(C)C3CCCC3)[C@H]2O)[C@](C)(OC)C[C@@H](C)C(=O)[C@H](C)[C@H]2N(CCc3ccc(Cl)c(F)c3)C(=O)O[C@]12C [Example 18, 3'-N-Desmethyl-3'-N-cyclopentyl-11-deoxy-11-[carboxy-(4-chloro-3-fluorophenethylamino)]-6-O-methyl-erythromycin A 11,12-(cyclic carbamate)]
  Ki: 5.89 nM

## CC[C@H]1OC(=O)[C@H](C)[C@@H](O[C@H]2C[C@@](C)(OC)[C@@H](O)[C@H](C)O2)[C@H](C)[C@@H](O[C@@H]2O[C@H](C)C[C@H](N(C)CC3CCC3)[C@H]2O)[C@](C)(OC)C[C@@H](C)C(=O)[C@H](C)[C@H]2N(CCc3ccc(Cl)cc3)C(=O)O[C@]12C [Example 19, 3'-N-Desmethyl-3'-N-cyclobutylmethyl-11-deoxy-11-[carboxy-(4-chlorophenethylamino)]-6-O-methyl-erythromycin A 11,12-(cyclic carbamate)]
  Ki: 1.58 nM
